Where a SMILES comes first, the peptide text is derived from it. [ ]: non-standard residue; d: D form. The star is where a group is joined. Decanoyl(3,6,9-trioxa) = COCCOCCOCC(=O)*; Glyceroyl(2S) = O=C([C@@H](O)CO)*; Glyceroyl(2R) = O=C([C@H](O)CO)*; hArg = N=C(N)NCCCC[C@H](N)C(=O)O; 3Pal = N[C@@H](Cc1cccnc1)C(=O)O; MeOCH2CH2OCH2CO = COCCOCC(=O)*; X4 = O=C([C@H](O)[C@@H](O)CO)*; Chg = N[C@H](C(=O)O)C1CCCCC1; hSer = N[C@@H](CCO)C(=O)O; Nle = CCCC[C@H](N)C(=O)O; Glycolyl = O=C(CO)*; X3 = O=C(C(O)CO)*
target: free PSA (Homo sapiens, UniProt P07288); assay: Recognition of oligopeptides by free PSA (time to 50% cleavage, HPLC); settings: Table 2, oligopeptides; PSA digestion buffer 12 mM Tris pH8.0, 25 mM NaCl, 0.5 mM CaCl2; substrate:PSA 100 to 1
Method: The oligopeptides prepared as described in Example 1 were individually dissolved in PSA digestion buffer (12 mM tris(hydroxymethyl)-aminomethane pH8.0, 25 mM NaCl, 0.5 mM CaCl2) and the solution added to PSA at a molar ration of 100 to 1. The reaction is quenched after various reaction times by the addition of trifluoroacetic acid (TFA) to a final 1% (volume/volume). The quenched reaction was analyzed by HPLC on a reversed-phase C18 column using an aqueous 0.1% TFA/acetonitrile gradient. […] Oligopeptides containing free amine moieties (ie. comprising hArg, Orn, Lys and or 3PAL) were tested as TFA salts. All other oligopeptides were tested as neutral compounds.

Chain of free PSA (P07288 25-261): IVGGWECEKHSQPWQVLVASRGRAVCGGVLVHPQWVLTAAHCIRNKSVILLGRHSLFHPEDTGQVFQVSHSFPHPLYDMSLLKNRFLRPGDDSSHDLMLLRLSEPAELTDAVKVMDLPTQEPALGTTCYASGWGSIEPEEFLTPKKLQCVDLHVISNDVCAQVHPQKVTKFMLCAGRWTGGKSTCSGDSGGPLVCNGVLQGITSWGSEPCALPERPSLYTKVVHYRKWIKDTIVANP

Row | Compound | Time to 50% Substrate Cleavage by York PSA [min]
1 | CC(C)C[C@H](NC(=O)[C@H](CO)NC(=O)[C@H](CCC(N)=O)NC(=O)[C@@H](NC(=O)[C@H](CO)NC(=O)[C@H](CO)NC(=O)[C@H](CO)NC(=O)[C@@H](O)CO)C1CCCCC1)C(=O)O [(I)2,3-dihydroxypropionyl-SSSChgQ-SL-acid] ({Glyceroyl(2S)}-SSS[Chg]QSL-OH) | 110

same assay, conditions: Table 2, oligopeptides; abbreviations not defined

Row | Solubility remark in the cleavage column (INSOLUBLE / PS / PP) | Compound
2 | INSOLUBLE | CCCC[C@H](NC(=O)[C@H](CO)NC(=O)[C@H](CCC(N)=O)NC(=O)[C@@H](NC(=O)[C@H](CCCCNC(=N)N)NC(=O)[C@H](CO)NC(C)=O)C1CCCCC1)C(=O)O [Ac-ShRChgQ-SNle-acid] (Ac-S[hArg][Chg]QS[Nle]-OH)

same assay, conditions: free psa

Row | Time to 50% Substrate Cleavage by York PSA (Min), values marked * [min] | Compound
3 | 25 | CC(C)C[C@H](NC(=O)[C@H](CO)NC(=O)[C@H](CCC(N)=O)NC(=O)[C@@H](NC(=O)[C@H](CO)NC(=O)[C@H](CO)NC(=O)[C@H](CCCCNC(=N)N)NC(=O)[C@@H](O)CO)C1CCCCC1)C(=O)O [2(S)2,3-dihydroxypropionly-hRSSChgQ-SL-acid] ({Glyceroyl(2S)}-[hArg]SS[Chg]QSL-OH)
4 | 35 | CC(C)C[C@H](NC(=O)[C@H](CO)NC(=O)[C@H](CCC(N)=O)NC(=O)[C@@H](NC(=O)[C@H](CCCCNC(=N)N)NC(=O)[C@H](CO)NC(=O)[C@@H](O)CO)C1CCCCC1)C(=O)O [2(S)-2,3-dihydroxy propionylShRChgQSL-acid] ({Glyceroyl(2S)}-S[hArg][Chg]QSL-OH)
5 | 30 | CC(C)C[C@H](NC(=O)[C@H](CO)NC(=O)[C@H](CCC(N)=O)NC(=O)[C@@H](NC(=O)[C@H](CCCCNC(=N)N)NC(=O)[C@H](CO)NC(=O)CO)C1CCCCC1)C(=O)O [2-hydroxyacetyl-ShRChgQ-SL-acid] (Glycolyl-S[hArg][Chg]QSL-OH)
6 | 105 | CC(C)C[C@H](NC(=O)[C@H](CO)NC(=O)[C@H](CCC(N)=O)NC(=O)[C@H](Cc1ccc(O)cc1)NC(=O)[C@H](CCCCNC(=N)N)NC(=O)CO)C(=O)O [2-hydroxyacetylhRYQ-SL-acid] (Glycolyl-[hArg]YQSL-OH)
7 | 45 | CC(=O)N[C@@H](CCCCNC(=N)N)C(=O)N[C@@H](CO)C(=O)N[C@@H](CO)C(=O)N[C@H](C(=O)N[C@@H](CCC(N)=O)C(=O)N[C@@H](CO)C(=O)N[C@@H](CC(C)C)C(=O)O)C1CCCCC1 [AChRSSChgQ-SL-acid] (Ac-[hArg]SS[Chg]QSL-OH)
8 | 120 | COCCOCC(=O)N[C@@H](CO)C(=O)N[C@@H](CCCCNC(=N)N)C(=O)N[C@H](C(=O)N[C@@H](CCC(N)=O)C(=O)N[C@@H](CO)C(=O)N[C@@H](CC(C)C)C(=O)O)C1CCCCC1 [PEG(1)-ShRChgQ-SL-acid] (MeOCH2CH2OCH2CO-S[hArg][Chg]QSL-OH)

same assay, conditions: free psa, pH 8

Row | Compound | Time to 50% Substrate Cleavage by York PSA [min]
9 | CC(C)C[C@H](NC(=O)[C@H](CO)NC(=O)[C@H](CCC(N)=O)NC(=O)[C@@H](NC(=O)[C@H](CO)NC(=O)[C@H](CO)NC(=O)CNC(=O)C(O)CO)C1CCCCC1)C(=O)O (stereo partly drawn) [2,3-dihydroxypropionyl-GSSChgQ-SL-acid] (X3-GSS[Chg]QSL-OH) | 160
10 | CC(C)C[C@H](NC(=O)[C@H](CO)NC(=O)[C@H](CCC(N)=O)NC(=O)[C@@H](NC(=O)[C@H](CO)NC(=O)[C@H](CO)NC(=O)[C@H](CO)NC(=O)C(O)CO)C1CCCCC1)C(=O)O (stereo partly drawn) [2,3-dihydroxypropionyl-SSSChgQ-SL-acid] (X3-SSS[Chg]QSL-OH) | 120
11 | CC(C)C[C@H](NC(=O)[C@H](CO)NC(=O)[C@H](CCC(N)=O)NC(=O)[C@@H](NC(=O)[C@H](CO)NC(=O)[C@H](CO)NC(=O)CO)C1CCCCC1)C(=O)O [2-hydroxyacetyl-SSChgQ-SL-acid] (Glycolyl-SS[Chg]QSL-OH) | 180
12 | CCCC[C@H](NC(=O)[C@H](CO)NC(=O)[C@H](CCC(N)=O)NC(=O)[C@H](Cc1ccc(O)cc1)NC(=O)[C@H](CO)NC(=O)[C@H](CO)NC(=O)[C@H](CCCCNC(=N)N)NC(=O)CO)C(=O)O [2-hydroxyacetyl-hRSSYQ-SNle-acid] (Glycolyl-[hArg]SSYQS[Nle]-OH) | 45
13 | CC(C)C[C@H](NC(=O)[C@H](CO)NC(=O)[C@H](CCC(N)=O)NC(=O)[C@@H](NC(=O)[C@H](CO)NC(=O)[C@H](CO)NC(=O)[C@H](Cc1cccnc1)NC(=O)[C@@H](O)CO)C1CCCCC1)C(=O)O [(I)2,3-dihydroxypropionyl-3PAL-SSChgQ-SL-acid] ({Glyceroyl(2S)}-[3Pal]SS[Chg]QSL-OH) | 70
14 | CC(C)C[C@H](NC(=O)[C@H](CO)NC(=O)[C@H](CCC(N)=O)NC(=O)[C@@H](NC(=O)[C@H](CO)NC(=O)[C@H](CO)NC(=O)[C@@H](O)CO)C1CCCCC1)C(=O)O [(I)2,3-dihydroxypropionyl-SSChgQ-SL-acid] ({Glyceroyl(2S)}-SS[Chg]QSL-OH) | 180
15 | CC(C)C[C@H](NC(=O)[C@H](CO)NC(=O)[C@H](CCC(N)=O)NC(=O)[C@@H](NC(=O)[C@H](CO)NC(=O)[C@H](CO)NC(=O)[C@H](CO)NC(=O)[C@@H](O)CO)C1CCCCC1)C(=O)O [(I)2,3-dihydroxypropionyl-SSSChgQ-SL-acid] ({Glyceroyl(2S)}-SSS[Chg]QSL-OH) | 80
16 | CC(C)C[C@H](NC(=O)[C@H](CO)NC(=O)[C@H](CCC(N)=O)NC(=O)[C@@H](NC(=O)[C@H](CO)NC(=O)[C@H](CO)NC(=O)[C@H](Cc1cccnc1)NC(=O)[C@H](O)CO)C1CCCCC1)C(=O)O [(d)2,3-dihydroxypropionyl-3PAL-SSChgQSL-acid] ({Glyceroyl(2R)}-[3Pal]SS[Chg]QSL-OH) | 80
17 | COCCOCCOCC(=O)N[C@@H](CO)C(=O)N[C@@H](CO)C(=O)N[C@@H](Cc1ccc(O)cc1)C(=O)N[C@@H](CCC(N)=O)C(=O)N[C@@H](CO)C(=O)N[C@@H](CC(C)C)C(=O)O [PEG(2)-SSYQ-SL-acid] ({Decanoyl(3,6,9-trioxa)}-SSYQSL-OH) | 150

Other lines, results leading:

Row | Time to 50% Substrate Cleavage by York PSA [min] | Compound
18 | 50 | CC(C)C[C@H](NC(=O)[C@H](CO)NC(=O)[C@H](CCC(N)=O)NC(=O)[C@@H](NC(=O)[C@H](CO)NC(=O)[C@H](CO)NC(=O)[C@H](CCCCNC(=N)N)NC(=O)C(O)CO)C1CCCCC1)C(=O)O (stereo partly drawn) [2,3-dihydroxypropionyl-hRSSChgQ-SL-acid] (X3-[hArg]SS[Chg]QSL-OH)
19 | 160 | CC(C)C[C@H](NC(=O)[C@H](CO)NC(=O)[C@H](CCC(N)=O)NC(=O)[C@@H](NC(=O)[C@H](CO)NC(=O)[C@H](CO)NC(=O)[C@H](CCO)NC(=O)C(O)CO)C1CCCCC1)C(=O)O (stereo partly drawn) [2,3-dihydroxypropionyl-hSSSChgQ-SL-acid] (X3-[hSer]SS[Chg]QSL-OH)
20 | 75 | CC(C)C[C@H](NC(=O)[C@H](CO)NC(=O)[C@H](CCC(N)=O)NC(=O)[C@@H](NC(=O)[C@H](CCCCNC(=N)N)NC(=O)[C@H](CO)NC(=O)C(O)CO)C1CCCCC1)C(=O)O (stereo partly drawn) [2,3-dihydroxypropionylShRChgQ-SL-acid] (X3-S[hArg][Chg]QSL-OH)
21 | 120 | CC(C)C[C@H](NC(=O)[C@H](CO)NC(=O)[C@H](CCC(N)=O)NC(=O)[C@@H](NC(=O)[C@H](CCCCNC(=N)N)NC(=O)[C@H](CO)NC(=O)CO)C1CCCCC1)C(=O)O [2-hydroxyacetyl-ShRChgQ-SL-acid] (Glycolyl-S[hArg][Chg]QSL-OH)
22 | 70 | CC(C)C[C@H](NC(=O)[C@H](CO)NC(=O)[C@H](CCC(N)=O)NC(=O)[C@@H](NC(=O)[C@H](CO)NC(=O)[C@H](C)NC(=O)[C@H](CCCCNC(=N)N)NC(=O)CO)C1CCCCC1)C(=O)O [2-hydroxyacetyl-hRASChgQ-SL-acid] (Glycolyl-[hArg]AS[Chg]QSL-OH)
23 | 90 | CC(C)C[C@H](NC(=O)[C@H](CO)NC(=O)[C@H](CCC(N)=O)NC(=O)[C@@H](NC(=O)[C@H](CCCCNC(=N)N)NC(=O)[C@H](CO)NC(=O)[C@H](O)[C@@H](O)CO)C1CCCCC1)C(=O)O [(2R,3S)2,3,4-trihydroxybutanoyl-ShRChgQ-SL-acid] (X4-S[hArg][Chg]QSL-OH)
24 | 120 | CC(C)C[C@H](NC(=O)[C@H](CO)NC(=O)[C@H](CCC(N)=O)NC(=O)[C@@H](NC(=O)[C@H](CO)NC(=O)[C@H](CO)NC(=O)[C@H](CO)NC(=O)CO)C1CCCCC1)C(=O)O [(OH-Ac)SSSChgQ-SL-acid] (Glycolyl-SSS[Chg]QSL-OH)
25 | 120 | CC(=O)N[C@@H](CCCCNC(=N)N)C(=O)N[C@@H](CO)C(=O)N[C@@H](CO)C(=O)N[C@H](C(=O)N[C@@H](CCC(N)=O)C(=O)N[C@@H](CO)C(=O)N[C@@H](CC(C)C)C(=O)O)C1CCCCC1 [AChRSSChgQ-SL-acid] (Ac-[hArg]SS[Chg]QSL-OH)
26 | 50 | CC(=O)N[C@@H](CCCCNC(=N)N)C(=O)N[C@@H](C)C(=O)N[C@@H](CO)C(=O)N[C@H](C(=O)N[C@@H](CCC(N)=O)C(=O)N[C@@H](CO)C(=O)N[C@@H](CC(C)C)C(=O)O)C1CCCCC1 [Ac-hRASChgQ-SL-acid] (Ac-[hArg]AS[Chg]QSL-OH)
27 | 90 | COCCOCC(=O)N[C@@H](CO)C(=O)N[C@@H](CCCCNC(=N)N)C(=O)N[C@@H](Cc1ccc(O)cc1)C(=O)N[C@@H](CCC(N)=O)C(=O)N[C@@H](CO)C(=O)N[C@@H](CC(C)C)C(=O)O [PEG(1)-ShRYQ-SL-acid] (MeOCH2CH2OCH2CO-S[hArg]YQSL-OH)
28 | 30 | COCCOCC(=O)N[C@@H](CCCCNC(=N)N)C(=O)N[C@@H](CO)C(=O)N[C@@H](CO)C(=O)N[C@H](C(=O)N[C@@H](CCC(N)=O)C(=O)N[C@@H](CO)C(=O)N[C@@H](CC(C)C)C(=O)O)C1CCCCC1 [PEG(1)-hRSSChgQ-SL-acid] (MeOCH2CH2OCH2CO-[hArg]SS[Chg]QSL-OH)
29 | 80 | COCCOCCOCC(=O)N[C@@H](Cc1cccnc1)C(=O)N[C@@H](CO)C(=O)N[C@@H](CO)C(=O)N[C@H](C(=O)N[C@@H](CCC(N)=O)C(=O)N[C@@H](CO)C(=O)N[C@@H](CC(C)C)C(=O)O)C1CCCCC1 [PEG(2)-3PAL-SSChgQ-SL-acid] ({Decanoyl(3,6,9-trioxa)}-[3Pal]SS[Chg]QSL-OH)
30 | 30 | COCCOCCOCC(=O)N[C@@H](CO)C(=O)N[C@@H](CCCCNC(=N)N)C(=O)N[C@H](C(=O)N[C@@H](CCC(N)=O)C(=O)N[C@@H](CO)C(=O)N[C@@H](CC(C)C)C(=O)O)C1CCCCC1 [PEG(2)-S-hRChgQ-SL-acid] ({Decanoyl(3,6,9-trioxa)}-S[hArg][Chg]QSL-OH)

Source: patent US5998362A, “Conjugates useful in the treatment of prostate cancer” (priority 1997, dated 1999)
